Here are results for six compounds from ChEMBL document CHEMBL3886901, “Substituted azoles, antiviral active component, pharmaceutical composition, method for preparation and use thereof” (2016).

Structures are written as SMILES.

The nature of this test: Immumoenzymatic Assay: Solutions of the tested compounds in DMEM medium {DMEM) 1x; Source: Cellgro; Catalogue: 10-013-CV} were prepared immediately before use. Eleven serial three fold dilutions with variation of concentrations from 20 nM to 0.2 pM were prepared. In 4 hours after seeding, serial dilutions of the compounds were added to the cells (100 ul to each well). Final concentration of tested compounds was varied from 10 nM to 0.1 pM, and DMSO4 0.5%. If it was necessary, higher concentrations of the disclosed azoles were investigated. Each dilution of the compound was tested on two identical wells. Then the cells were incubated for three days at 37° C./5% CO2 and fixed by addition of acetone/methanol (1:1) mixture in amount of 250 ul/well. In 1 min the cells were washed 3 times with PBS (Phosphate Buffered Saline) solution. Then the cells were blocked by addition of 10% fetal calf serum in PBS solution in amount of 150 ul/well for 1 h at room temperature. Then, the cells were incubated with mouse monoclonal antibodies to cor-antigen HCV, don C7-50 (Source: Affinity BioReagents; Catalogue: MA1-080) (100 ul/well, working dilution 1:500 in 10% fetal calf serum in PBS solution) for 2 h at 37° C. The cells were washed 6 times with PBS/0.05% Tween 20 solution, then, they were incubated for 1 h with goat anti-mouse immunoglobulin antibodies (conjugated with horseradish peroxidase, 100 ul/well, working dilution 1:2500 in 10% fetal calf serum in PBS solution). The cells were washed 6 times with PBS/0.05% Tween 20 solution, once with PBS solution, after that substrate (1 tablet of o-phenylenediamine (oPD)+12 ml citrate/phosphate buffer+5 ul 30% H2O2) in amount of 100 ul/well was added. The plates were kept for 30 min in the dark at room temperature. The reaction was arrested by the addition of 2N H2SO4 in amount of 100 ul/well, and optical density (wavelength 490 nm) was measured by means of multiscan plate reader Victor3 V 1420 (Perkin Elmer). IC50 values (azole concentration, lowering the level of virus RNA-replicon on 50%) for every tested azole were calculated with the help of XLfit 4 program. Format: cell-based.

In general, IC50 refers to the midpoint of a concentration-inhibition curve. As for `COC(=O)N[C@H](C(=O)N1CCC[C@H]1c1nc(C#CC#Cc2ccc(-c3c[nH]c([C@@H]4CCCN4C(=O)[C@@H](NC(=O)OC)C(C)C)n3)cc2)c[nH]1)C(C)C`, the IC50 was 4 pM.
With `COC(=O)N[C@H](C(=O)N1CCC[C@H]1c1nc(C#CC#Cc2ccc3cc(-c4c[nH]c([C@@H]5CCCN5C(=O)[C@@H](NC(=O)OC)C(C)C)n4)ccc3c2)c[nH]1)C(C)C`, the half-maximal inhibitory concentration (IC50) (4 h) was 3.6 pM.
For `COC(=O)N[C@@H](C(=O)N1CCC[C@@H]1c1ncc(C#CC#Cc2ccc3cc(-c4cnc([C@H]5CCCN5C(=O)[C@H](NC(=O)OC)C(C)C)[nH]4)ccc3c2)[nH]1)C(C)C`, under “4 h”, the IC50 is 4.6 pM.
The same measure, in the same setting: the result for `COC(=O)N[C@H](C(=O)N1CCC[C@@H]1c1nc(C#CC#Cc2ccc(-c3c[nH]c([C@@H]4CCCN4C(=O)[C@@H](NC(=O)OC)C(C)C)n3)cc2)c[nH]1)c1ccccc1` reads 5.4 pM.
Still for that read-out and setting: the result for `COC(=O)N[C@@H](C(=O)N1CCC[C@H]1c1nc(-c2ccc(C#CC#Cc3c[nH]c([C@H]4CCCN4C(=O)[C@H](NC(=O)OC)C(C)C)n3)cc2)c[nH]1)c1ccccc1` reads 8.2 pM; that for `COC(=O)N[C@H](C(=O)N1CCC[C@H]1c1nc(-c2ccc(C#CC#Cc3c[nH]c([C@H]4CCCN4C(=O)[C@H](NC(=O)OC)C(C)C)n3)cc2)c[nH]1)c1ccccc1`, 1.8 pM.
